Results on two compounds are retold here after patent US10669242B2 (priority 2016, dated 2020).

The target in assay [1] is T1, recombinant glucosyltransferase domain of C. difficile Toxin B/TcdB (Clostridioides difficile, UniProt P18177).
T1 construct: 6-His (C); purchased R&D Systems 6246-GT
The assay is described as follows: biochemical.

Assay [2] addresses T2, C. difficile full-length toxin TcdB (Clostridioides difficile, UniProt P18177).
T2 construct: C. difficile full-length toxins (TcdA or TcdB); purchased EMD Millipore 616377
Briefly: cell-based.

In assay [3] the test system is C. difficile strain VPI 10463. Briefly: Acute murine C. difficile infection model. As to conditions: for weight loss, time course: acute infection, days after infection, 8 animals per group. The class given is in vivo, C57BL/6 mice. The text has this: In a hospital environment, C. difficile infection occurs when the patient receives an antibiotic treatment that disrupts the normal gut microflora and is exposed to C. difficile spores. The patient often fails to mount a protective immune response against the acute C. difficile infection. (Rupnik, Wilcox et al. 2009). To study the acute C. difficile infection, we established a murine C. difficile infection model. Details of the infection model are provided in the “Experimental Protocol” (below).
In brief, female C57BL/6 mice were administered the following antibiotics: colistin (0.042 units/mL), gentamicin (0.035 mg/mL), kanamycin (0.4 mg/mL), metronidazole (0.215 mg/mL) and vancomycin (0.045 mg/mL) in drinking water for 3 days. The administered antibiotics disrupted the normal gut microflora in mice. On the 4th day, mice received oral administration of 0.5 mL volume containing ˜100 spores produced from a virulent clinical C. difficile isolate (strain VPI 10463). In this acute murine C. difficile infection model, we observed a similar time course of infection when compared to that of clinical patients.
Using the developed murine C. difficile infection model (Example 67), we evaluated our test compounds for their efficacy in reducing weight loss and gut inflammation caused by the acute C. difficile infection. We tested the efficacy of Example 6a and Example 5ae and used eight (8) animals in each group.
We further tested the efficacy of the Example 6a, Example 5ae, Example 4cl, and Example 5al compounds by PO administration. Vancomycin was used as a positive control. Three (3) experiments were performed utilizing a total of five (5) to sixteen (16) animals in each group.
C. difficile strain VPI 10463 was grown for four (4) days in 10 ml of BHI in a Bactron anaerobic workstation (Shel Lab). The culture was centrifuged at 2,700 g for 10 minutes. The bacterial pellet was washed with 10 mL of PBS and the centrifugation was repeated. The pellet was then re-suspended in 10 mL of PBS, incubated at 56° C. for 10 minutes, and then was frozen at −20° C. until used. Titers of spore stocks were determined by serial dilution and plating onto BHI and with 1% taurocholate and counting of colonies after incubation for 24 hours at 37° C. using the GasPak EZ Anaerobe Pouch System.
We utilized an established C. difficile murine infection model (Chen, Katchar et al. 2008). To render them susceptible to infection, female C57BL/6 mice (˜10 weeks old and weighing ˜20 g) were administered the following antibiotics (Sigma Aldrich) in drinking water for 3 days (Days −6 to −3): colistin (0.042 units/mL), gentamicin (0.035 mg/mL), kanamycin (0.4 mg/mL), metronidazole (0.215 mg/mL) and vancomycin (0.045 mg/mL). Based upon an expected water consumption of 100 mL/kg/day, the approximate doses of these antibiotics will be as follows: colistin (4.2 units/kg/day), gentamicin (3.5 mg/kg/day), kanamycin (40 mg/kg/day), metronidazole (21.5 mg/kg/day) and vancomycin (4.5 mg/kg/day). The animals were provided with regular drinking water for two days (Day −2 and Day −1), and the next day (Day 0) they were administered clindamycin phosphate (1 mg/mL solution in PBS) at 10 mL/kg by intraperitoneal injection, for a final dose of 10 mg/kg body weight. The following day (Day 1), they were orally gavaged with ˜100 spores in a 0.5 ml volume.
Compounds were administered beginning ˜8 hours after infection, and the animals were dosed twice per day for two days (Days 2-3) with a total of four doses. Compounds were prepared as 5 mg/mL suspensions in 20% PEG-400, 0.4% carboxymethyl cellulose and 0.2% Tween 80 and administered at a dose of 10 mL/kg, for a final dose of 50 mg/kg body weight.
Animals were observed and weighed two (2) to (3) times daily. Animals that were obviously moribund or had lost >20% of their initial body weight were euthanized. Sub-groups of animals were euthanized four (4) hours after the final compound dose (52 hours after infection). […]

Molecules are shown by their SMILES.

T1 sequence (P18177 1-543): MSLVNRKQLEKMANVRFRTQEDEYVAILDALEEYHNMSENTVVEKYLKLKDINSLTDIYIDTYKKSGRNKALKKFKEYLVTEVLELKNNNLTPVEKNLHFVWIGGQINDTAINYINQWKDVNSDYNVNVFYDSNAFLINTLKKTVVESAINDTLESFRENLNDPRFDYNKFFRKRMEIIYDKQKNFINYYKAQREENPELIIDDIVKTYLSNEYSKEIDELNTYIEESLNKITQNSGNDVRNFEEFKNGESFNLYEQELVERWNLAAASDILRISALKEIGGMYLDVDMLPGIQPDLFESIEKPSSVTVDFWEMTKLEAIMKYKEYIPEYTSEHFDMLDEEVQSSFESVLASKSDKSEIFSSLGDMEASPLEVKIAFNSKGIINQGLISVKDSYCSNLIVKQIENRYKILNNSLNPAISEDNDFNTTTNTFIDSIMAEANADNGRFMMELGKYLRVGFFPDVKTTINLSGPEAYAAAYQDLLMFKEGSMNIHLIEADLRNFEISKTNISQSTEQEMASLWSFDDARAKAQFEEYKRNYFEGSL
T2 sequence (P18177 2-2366 limits assumed): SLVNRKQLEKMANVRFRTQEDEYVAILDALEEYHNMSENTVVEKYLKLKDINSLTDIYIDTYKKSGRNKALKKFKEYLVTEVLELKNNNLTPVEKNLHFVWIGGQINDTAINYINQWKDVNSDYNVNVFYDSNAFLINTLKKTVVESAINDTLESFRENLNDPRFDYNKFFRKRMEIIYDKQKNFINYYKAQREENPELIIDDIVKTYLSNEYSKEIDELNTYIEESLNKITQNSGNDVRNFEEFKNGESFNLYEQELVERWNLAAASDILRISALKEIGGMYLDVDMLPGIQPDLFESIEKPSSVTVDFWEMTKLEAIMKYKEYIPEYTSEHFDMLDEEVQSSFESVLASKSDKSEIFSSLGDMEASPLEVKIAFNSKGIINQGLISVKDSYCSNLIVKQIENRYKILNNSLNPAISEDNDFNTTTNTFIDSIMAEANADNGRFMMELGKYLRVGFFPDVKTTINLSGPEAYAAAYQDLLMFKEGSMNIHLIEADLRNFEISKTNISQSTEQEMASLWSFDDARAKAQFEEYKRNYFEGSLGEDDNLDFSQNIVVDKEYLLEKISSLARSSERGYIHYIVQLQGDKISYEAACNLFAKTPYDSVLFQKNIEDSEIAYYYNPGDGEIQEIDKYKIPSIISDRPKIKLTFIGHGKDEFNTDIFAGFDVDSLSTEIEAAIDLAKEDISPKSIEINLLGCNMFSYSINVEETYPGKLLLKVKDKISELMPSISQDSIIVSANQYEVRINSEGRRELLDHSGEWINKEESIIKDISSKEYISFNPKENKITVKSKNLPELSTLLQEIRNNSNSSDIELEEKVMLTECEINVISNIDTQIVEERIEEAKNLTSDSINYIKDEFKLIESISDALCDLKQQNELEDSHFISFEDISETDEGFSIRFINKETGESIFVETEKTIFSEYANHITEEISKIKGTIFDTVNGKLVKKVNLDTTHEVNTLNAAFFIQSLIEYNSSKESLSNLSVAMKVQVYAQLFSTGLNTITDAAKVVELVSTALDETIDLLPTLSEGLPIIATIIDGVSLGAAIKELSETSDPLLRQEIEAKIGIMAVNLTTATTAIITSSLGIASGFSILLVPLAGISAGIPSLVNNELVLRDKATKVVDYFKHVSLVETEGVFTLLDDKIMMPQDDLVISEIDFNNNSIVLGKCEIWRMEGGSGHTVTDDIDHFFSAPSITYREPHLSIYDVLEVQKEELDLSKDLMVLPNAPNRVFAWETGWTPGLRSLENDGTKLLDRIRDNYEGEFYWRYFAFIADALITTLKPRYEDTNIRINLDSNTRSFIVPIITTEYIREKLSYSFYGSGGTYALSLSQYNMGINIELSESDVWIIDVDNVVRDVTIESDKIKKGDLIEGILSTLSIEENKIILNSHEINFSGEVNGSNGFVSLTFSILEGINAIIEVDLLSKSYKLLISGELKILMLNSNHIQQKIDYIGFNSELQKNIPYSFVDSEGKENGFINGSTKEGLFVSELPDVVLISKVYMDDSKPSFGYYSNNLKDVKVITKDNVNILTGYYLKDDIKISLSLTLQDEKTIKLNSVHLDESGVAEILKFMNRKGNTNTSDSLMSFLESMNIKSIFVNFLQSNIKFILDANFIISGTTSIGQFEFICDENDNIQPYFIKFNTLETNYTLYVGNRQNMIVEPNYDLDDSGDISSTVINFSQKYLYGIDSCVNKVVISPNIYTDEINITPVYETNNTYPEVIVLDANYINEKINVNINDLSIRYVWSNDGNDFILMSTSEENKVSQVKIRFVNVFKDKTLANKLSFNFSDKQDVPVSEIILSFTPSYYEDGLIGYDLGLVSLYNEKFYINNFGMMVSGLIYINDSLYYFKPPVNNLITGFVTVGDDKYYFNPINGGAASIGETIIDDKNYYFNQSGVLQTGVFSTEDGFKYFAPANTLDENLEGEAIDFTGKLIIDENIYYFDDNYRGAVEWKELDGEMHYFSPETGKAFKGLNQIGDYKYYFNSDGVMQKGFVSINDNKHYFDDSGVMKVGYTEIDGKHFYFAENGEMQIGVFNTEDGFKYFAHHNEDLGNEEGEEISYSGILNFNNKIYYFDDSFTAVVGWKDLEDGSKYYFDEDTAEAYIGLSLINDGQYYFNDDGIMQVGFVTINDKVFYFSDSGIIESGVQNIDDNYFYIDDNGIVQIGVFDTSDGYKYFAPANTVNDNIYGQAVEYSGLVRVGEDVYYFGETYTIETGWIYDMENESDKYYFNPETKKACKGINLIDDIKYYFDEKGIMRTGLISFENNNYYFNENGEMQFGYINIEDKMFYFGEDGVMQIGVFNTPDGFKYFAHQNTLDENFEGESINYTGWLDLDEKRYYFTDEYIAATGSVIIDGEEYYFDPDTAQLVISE

The term IC50 denotes the midpoint of a concentration-inhibition curve. For `O=C(Nc1ccc(C(F)(F)F)cn1)c1ccc(CN2C(=O)c3ccc(Cl)cc3NC(=O)[C@H]2Cc2ccccn2)cc1Cl` [Example 5ae, (R)-2-Chloro-4-((8-chloro-2,5-dioxo-3-(pyridin-2-ylmethyl)-2,3-dihydro-1H-benzo[e][1,4]diazepin-4(5H)-yl)methyl)-N-(5-(trifluoromethyl)pyridin-2-yl)benzamide], the IC50 in assay [1] was under 100 nM; in assay [2] it was 100 to 999 nM. Moreover, the “toxin effect on colon length” value in assay [3] (PO, 52 hours after infection) is on record as “significantly reduced the toxin effect on colon length”. Also, the “weight loss, time course” value in assay [3] was “significantly reduced weight loss 2.5 and 3.0 days after infection”.

In the case of `COc1ccc(NC(=O)c2ccc(CN3C(=O)c4ccc(Cl)cc4NC(=O)[C@H]3Cc3ccccn3)cc2F)nc1` [Example 6a, (R)-4-((8-Chloro-2,5-dioxo-3-(pyridin-2-ylmethyl)-2,3-dihydro-1H-benzo[e][1,4]diazepin-4(5H)-yl)methyl)-2-fluoro-N-(5-methoxypyridin-2-yl)benzamide], the concentration for half-maximal inhibition (IC50) in assay [1] and in assay [2] was under 100 nM in each case. The “weight loss, time course” value in assay [3] is “significantly reduced weight loss 2.25, 2.5 and 3.0 days after infection”.
